Experimental findings from a melting point compilation (Tetko et al.; mined from patent text by program, amines drawn as free bases though some values may be those of a salt) are described below.

Some results are limits rather than exact numbers.

As for `CC(C)(C)c1ccc(C(=O)Nc2cn3cc(-c4ccncc4)ccc3n2)cc1`, the melting point is 293 to 294 °C. Next, `O=C(N[C@H]1CN2CCC1CC2)C(O)(c1ccccc1)C1CCCC1` (some centres not stated): 69.8 to 73.3 °C. The value for `CCCCc1nc2c(C)cnc(C(=O)OC)c2n1Cc1ccc(-c2ccccc2-c2nnn[nH]2)cc1` was 149 to 151 °C; that for `CCOC(=O)C=Cc1cc(C=CC(=O)OCC)cc(CO)c1` was 68 to 69.5 °C; that for `CNC(=O)Cc1cccc(C(=O)c2ccccc2)c1N` was 145 to 146 °C. Next, `CCC(=O)N(Cc1cccc(-c2ccccc2)c1)c1cccc(-c2nnn[nH]2)c1`: 91 °C; `COc1ccc(-c2ccc(C)nc2-c2ccc(OCCN3CCOCC3)cc2)cc1`: 66 to 67 °C.

In the case of `CC(C)(C)OC(=O)CN1C(=O)[C@@H](N2C(=O)c3ccccc3C2=O)CSc2ccccc21`, the melting point fell in the range of 181 to 184 °C.

With `COC(=O)c1ccc2c(c1)CC(=O)O2`, the melting point is 102 to 103 °C. The value for `CC(Cc1cc(-c2ccccc2)nc2ccccc12)C(=O)O` (configuration not stated) was 185 °C. In turn, `Cc1ccc(Cl)cc1NC(=S)n1c(C)cc2ccccc21` displayed a melting point of 121 to 122 °C.

`Nc1ccccc1NC(=O)c1cc2cccc(OCc3ccccn3)c2o1`: the melting point was in the range of 105 to 135 °C. For `CCN(CC)C(=O)n1cc(C=O)c(S(=O)(=O)c2cccc(Cl)c2C)n1`, the melting point fell in the range of 95 to 97 °C. Next, `O=C(O)c1cn(-c2ccc(F)cc2F)c2c(F)c(N3Cc4cccc(Cl)c4C3)c(F)cc2c1=O`: 256 to 260 °C. The compound `O=c1c2cc(F)c(N3CCCC3)nc2n(-c2ccc(F)cc2F)c(=O)n1OCc1ccccc1` displayed a melting point of 183 to 185 °C. The value for `CCn1nc(-c2ccc(F)cc2)c(-c2ccncc2)c1C(=O)N(C)Cc1ccccn1` was 144 to 147 °C; that for `COc1ccc2[nH]nc(N3CCN(CCCn4c(=O)[nH]c5ccccc54)CC3)c2c1` was 195 to 197 °C; that for `O=C(NC[C@@H](C(=O)NO)N1CCCCC1)c1ccc(OCc2ccnc(-c3ccccc3)c2)cc1` was 177 °C. In turn, `CCCCOc1c(OC)c(OC)cc(C)c1C(=O)c1c(Cl)cccc1Cl` showed a melting point of 70 °C. The value for `CCOC(=O)CCCCCC(=O)NCc1cccc2c1C(=O)N(C1CCC(=O)NC1=O)C2=O` (configuration not stated) was 82 to 84 °C.

The compound `CC(C)(OCc1nn(Cc2ccccc2)c2ccccc12)C(=O)N1CCOCC1` had a melting point of 135 to 137 °C. Next, `C[Si](C)(C)C#Cc1c[nH]c(=O)[nH]c1=O`: 187 to 189 °C; `COC(=O)c1sc(C)cc1C`: 98 to 101 °C. The value for `CC1Cc2cccc3c4oc(=O)c(Br)c(O)c4c(=O)n1c23` (configuration not stated) was 221 to 222 °C; that for `COc1ccc(C2=C(NC(=O)Nc3c(C)cccc3C(C)C)CN(C)c3ccc(Cl)cc32)cc1OC` was 200 to 201 °C; that for `COc1ccc(S(=O)(=O)c2c(SC)nn3c(N)cc(C)nc23)cc1` was > 230 °C.

For `CCCSc1ncc(CC(C(=O)O)C(=O)OCC)n1Cc1ccccc1Cl` (configuration not stated), the melting point is 118 to 120 °C.

Consider `CCOc1ccc2c(c1)nc1n2CC(c2ccccn2)S1=O` (configuration not stated), for which the melting point is 145 to 147 °C. Turning to `Cc1ccnc2c(Oc3ccccc3[N+](=O)[O-])cccc12`, the melting point lay in the range of 98 to 99 °C. The value for `Cc1c(F)c(F)cc(C(N)=O)c1F` was 105 to 108 °C. The value for `Cc1ccc2c(c1)N(CC(=O)c1ccco1)C(=O)C(NC(=O)Nc1cccc(C(=O)O)c1)CN2C(=O)C(C)(C)C` (configuration not stated) was 202 to 204 °C; that for `CCC(=CC(CNC(=O)c1sc(C)nc1C)=NO)C(C)[N+](=O)[O-]` (configuration not stated) was 158 to 159 °C. The value for `Cc1cccc(C(=O)NO)c1N(C)S(=O)(=O)c1ccc(OCCCNC(=O)c2ccc3c(c2)OCO3)cc1` was 102 to 112 °C.

`C=COCCCCOC(=O)CCCCCCCCCCC(=O)OCCCCOC=C` registered a melting point of 42 to 43 °C.

`COc1ccc(C2(c3cccc(C)n3)OCCCO2)cc1OC` showed a melting point of 124 to 126 °C. Next, `CC(=O)Nc1cc2c(Nc3ccc(Sc4nccn4C)c(Cl)c3)c(C#N)cnc2cc1N1CCC(N2CCCC2)CC1`: 243 to 255 °C; `COc1ccc(OCC2(Cc3c(C)[nH]c(=O)c(C(C)C)c3O)CC2)cc1`: 222 to 223 °C. Next, `COC(=O)COc1ccc(C(=O)CN)cc1`: 135 to 136 °C. In turn, `COc1cc(COc2nn(-c3ccccc3)cc2/C=C/c2csc(C)n2)ccc1OCc1nc(-c2ccc(CC(=O)O)cc2)oc1C` yielded a melting point of 181 to 182 °C. The value for `CC(NC(=O)C(C)(Cc1c[nH]c2ccccc12)NCc1cc2ccccc2o1)c1ccn(C)c1` (configuration not stated) was 53 to 57 °C; that for `CCCNC(=O)c1nc(-c2ccccc2)c(-c2ccc(=O)n(C)n2)s1` was 108 to 109 °C; that for `Cc1cc(C(=O)NC2CC2)ccc1N1CCN(C(=O)OC(C)(C)C)CC1` was 111 to 115 °C. Next, `CC(=O)Nc1c(F)cc(F)cc1SCC#N`: 148 to 149 °C; `CCOC(=O)c1ccc(NC(=O)c2ccncc2)cc1`: 143 to 145 °C; `FC(F)(F)c1nc2cnc3ccccc3c2[nH]1`: 252 to 254 °C. Next, `COc1cc(C(=O)N2CCN(C(=O)C=C(c3ccccc3)c3ccccc3)CC2)cc(OC)c1OC`: 148 to 150 °C; `CN(C)CCOC(=O)CCc1c(C(=O)OCCN(C)C)[nH]c2cc(Cl)cc(Cl)c12`: 95 to 97 °C. Consider `Cc1ccc(Cc2cnc(NCCCN(Cc3ccccc3)c3ccccn3)[nH]c2=O)cn1`, for which the melting point is 90 to 96 °C. The value for `CC(C)=CCN(c1ccc(OCc2ccccc2)cc1)C1CCN(C(=O)C2CN(C)CCN2CCC(C)C)CC1` (configuration not stated) was 85 to 86 °C. The compound `COc1ccc2c(c1)CCN(CCc1ccc(NC(=O)c3cccc4c(=O)c5cccc(OC)c5[nH]c34)cc1)C2` returned a melting point of 260 °C.

For `Cc1cccc(C)c1N1CC(C)N(c2c(C)cccc2C)C1=NC(=O)Oc1ccccc1` (configuration not stated), the melting point is 165 to 166 °C.

In turn, `CC(=O)OCCCC1Oc2c(C)c(C)c(OC(C)=O)c(C)c2S1` (configuration not stated) gave a melting point of 78 to 79 °C. `Cc1cc(N=CN(C)C)c(C)cc1O` gave a melting point of 212 °C.

For the compound `Cc1nc2cccc3n(CCCCCCNS(=O)(=O)CC(F)(F)F)c(=O)c1n23`, the melting point lay within 141 to 143 °C.

On to `N#Cc1cc(F)ccc1Oc1cccc(C(F)(F)F)c1`, for which the melting point worked out at 51 °C. As for `COc1ccc(N(CCCC(=O)O)C(=O)CCN(C(=O)c2ccc(Cl)cc2)c2ccc(OC)cc2)cc1`, the melting point is 91 to 93 °C.

On to `CC(C)(C)C(O)(CCCOc1ccccc1)Cn1cncn1` (configuration not stated), for which the melting point came to 106 °C. `O=Cc1cc(Oc2ccccc2)ccc1O` had a melting point of 54 to 55 °C. Next, `CC(C)(C)OC(=O)NCC1CCN(CC2(C(=O)O)CCCC2)CC1`: 150 °C; `O=C(O)c1c2n(c3cc(N4CCOCC4)c(F)cc3c1=O)CS2`: 244 to 248 °C. The value for `CN1C(=O)C2(COc3cc4c(cc32)OCCO4)c2c(Oc3ccccn3)cccc21` (configuration not stated) was 219 to 221 °C; that for `O=C1O[C@@H](Cn2ccnn2)CN1c1ccc(-c2ccc(C(O)C3CC3)nc2)c(F)c1` (some centres not stated) was 160 to 163 °C. Compound `CC1(C)CCC(C)(C)c2cc(-c3cc(-c4ccc(C=O)cc4)on3)ccc21` returned a melting point of 179 to 180 °C. `COC(=O)C1=CC[C@H]2[C@@](C=O)(CCC3C(C)(C)CCC[C@@]32C)C(=O)C1` (some centres not stated) yielded a melting point of 86 to 88 °C.

For `CC(C)(O)CCCCc1ccc(CCc2ccc(O)c(O)c2)cc1`, the melting point is 124 to 126 °C. Consider `CC(=O)Nc1ccc(S(=O)(=O)Nn2cc(-c3ccccc3)c3ccccc32)cc1`, for which the melting point was in the range of 190 to 193 °C.

In turn, `COc1ccc2c(c1)CC1=C2NN(C(=O)OC(C)(C)C)C1c1cccs1` (configuration not stated) had a melting point of 163 to 165 °C. Next, `O=c1[nH]c(NCCCNc2ccccn2)ncc1Cc1ccc(Cl)cc1`: 168 to 171 °C; `COc1cc(C(=O)N2CCN(c3ccc(N)cc3)CC2)cc(OC)c1O`: 182 to 183 °C.

On to `CC(C)C(C)(C)C(O)(COc1ccc(Cl)cc1)Cn1cncn1` (configuration not stated), for which the melting point was in the range of 59 to 60 °C. The value for `CCOC(=O)N1Cc2cccc3c2c(cn3C)C1` was 76 to 78 °C; that for `COCCON=C(C1=C(O)C(=O)N(c2ccc(C)nn2)C1c1ccc(OC(F)(F)F)cc1)c1ccc(C(C)C)cc1` (configuration not stated) was 115 to 118 °C. Consider `COC(=O)C(=O)Cc1nc([N+](=O)[O-])cn1C`, for which the melting point was determined as 186 °C.

For the compound `Cc1ccc(-c2ccc3c(c2)C=C(C(=O)Nc2ccc(CNc4ccccc4)cc2)CCO3)cc1`, the melting point lay within 157 to 158 °C. In turn, `Cc1cccc2c(=O)n(C)c(-c3ccc(OC4CCN(C5CCC5)CC4)cc3)nc12` returned a melting point of 152 to 154 °C.

For the compound `Cc1cccc2nnc(-c3ccccc3)c(O)c12`, the melting point fell in the range of 215 to 217 °C. Next, `CCCn1c(=O)c2nc(-c3ccc(/C=C/C(=O)O)cc3)[nH]c2n(C)c1=O`: > 300 °C; `C[C@H](NC(=O)Cc1ccccc1)C(=O)N[C@@H]1C(=O)Nc2ccccc2O[C@@H]1c1ccccc1`: 122 to 136 °C. The value for `Clc1ccn2ncc(Br)c2n1` was 173 to 174 °C; that for `CCCCOS(C)(=O)=O` was 100 to 101 °C; that for `COC1CC(OCc2ccccc2)C(OS(=O)(=O)c2ccc(C)cc2)C(CO)O1` (configuration not stated) was 100 to 101 °C. The value for `COc1ccccc1NC1CN([C@H]2CC[C@@H](c3c[nH]c4ccccc43)CC2)C1` was 67 to 70 °C; that for `NC(=O)c1ccc(-c2cnc3c(c2)N(Cc2ccccc2)C(=O)CN3)cc1` was > 200 °C.

`N#Cc1cccnc1N1CCN(CNC(=O)c2ccccc2Cl)CC1` displayed a melting point of 137 to 139 °C. Next, `Cc1cnc2nc(C(F)(F)F)n(C)c2c1`: 100 °C. Next, `OCC(O)CNc1nc(-c2ccc(Cl)c(Cl)c2)nc2ccccc12` (configuration not stated): 162 to 164 °C. Next, `CCc1nnc2c(O)nc3cc(OC)ccc3n12`: > 250 °C.

Usually melting point stands for the temperature of the solid-liquid transition.
